# Reference: patent US12359182B2, “Polypeptide variants” (Novozymes A/S, priority 2020, dated 2025)
# Tests used:
# [1] = molecular target: Bifidobacterium bifidum lactase, parent, SEQ ID NO: 1 (Bifidobacterium bifidum, UniProt A4K5H9); assay: galactose inhibition assay (GI-IF), ONPG hydrolysis with and without D-(+)-Galactose (80 mM), Abs405; type: biochemical; settings: ONPG 10.66 mM, MES 100 mM, pH 6.0, 30 min at 23° C., normalized reference
# Protocol: (§1) Stop solution is added (Na2CO3, 10% w/v in H2O), and the absorbance at 405 nm is recorded. “Abs405 Galactose sample” is the absorbance for the lactase grown in assay solution, “Abs405 Galactose Blank” is the absorbance for non-inoculated assay solution, “Abs405 Reference sample” is the absorbance for the lactase grown in reference solution, and “Abs405 Reference Blank” is the absorbance for non-inoculated reference solution.
# [2] = molecular target: Bifidobacterium bifidum lactase (SEQ ID NO: 1) variant V1F (Bifidobacterium bifidum, UniProt A4K5H9, V33F); type: biochemical; settings: D-(+)-Galactose 80 mM, ONPG 10.66 mM, pH 6.0, 30 min at 23° C., ratio of activity with/without galactose relative to wild type SEQ ID NO: 1 (IF=1.0), above 1 = decreased galactose inhibition
# Protocol: as §1
# [3] = molecular target: Bifidobacterium bifidum lactase (SEQ ID NO: 1) variant V1D (Bifidobacterium bifidum, UniProt A4K5H9, V33D); type: biochemical; settings: D-(+)-Galactose 80 mM, ONPG 10.66 mM, pH 6.0, 30 min at 23° C., ratio of activity with/without galactose relative to wild type SEQ ID NO: 1 (IF=1.0), above 1 = decreased galactose inhibition
# Protocol: as §1
# [4] = molecular target: Bifidobacterium bifidum lactase (SEQ ID NO: 1) variant V1K (Bifidobacterium bifidum, UniProt A4K5H9, V33K); type: biochemical; settings: D-(+)-Galactose 80 mM, ONPG 10.66 mM, pH 6.0, 30 min at 23° C., ratio of activity with/without galactose relative to wild type SEQ ID NO: 1 (IF=1.0), above 1 = decreased galactose inhibition
# Protocol: as §1
# [5] = molecular target: Bifidobacterium bifidum lactase (SEQ ID NO: 1) variant V1R (Bifidobacterium bifidum, UniProt A4K5H9, V33R); type: biochemical; settings: D-(+)-Galactose 80 mM, ONPG 10.66 mM, pH 6.0, 30 min at 23° C., ratio of activity with/without galactose relative to wild type SEQ ID NO: 1 (IF=1.0), above 1 = decreased galactose inhibition
# Protocol: as §1
# [6] = molecular target: Bifidobacterium bifidum lactase (SEQ ID NO: 1) variant E2G (Bifidobacterium bifidum, UniProt A4K5H9, E34G); type: biochemical; settings: D-(+)-Galactose 80 mM, ONPG 10.66 mM, pH 6.0, 30 min at 23° C., ratio of activity with/without galactose relative to wild type SEQ ID NO: 1 (IF=1.0), above 1 = decreased galactose inhibition
# Protocol: as §1
# [7] = molecular target: T1, Bifidobacterium bifidum lactase, SEQ ID NO: 1 (G856 backbone) (Bifidobacterium bifidum, UniProt A4K5H9); assay: biochemical
# T1 construct: purified sample
# Source text: (§2) *Note regarding backbone: Some clones of our template backbone for the site saturation library (SEQ ID NO: 1) contain a G856E mutation, so all substitution variants we describe are in the backbone context of SEQ ID NO: 1 with either Gly or Glu at position 856.
# [8] = molecular target: T2, Bifidobacterium bifidum lactase of SEQ ID NO: 1, variant G856E (Bifidobacterium bifidum, UniProt A4K5H9, G888E); assay: biochemical
# T2 construct: purified sample
# T2 sequence (A4K5H9 33-1336 G888E): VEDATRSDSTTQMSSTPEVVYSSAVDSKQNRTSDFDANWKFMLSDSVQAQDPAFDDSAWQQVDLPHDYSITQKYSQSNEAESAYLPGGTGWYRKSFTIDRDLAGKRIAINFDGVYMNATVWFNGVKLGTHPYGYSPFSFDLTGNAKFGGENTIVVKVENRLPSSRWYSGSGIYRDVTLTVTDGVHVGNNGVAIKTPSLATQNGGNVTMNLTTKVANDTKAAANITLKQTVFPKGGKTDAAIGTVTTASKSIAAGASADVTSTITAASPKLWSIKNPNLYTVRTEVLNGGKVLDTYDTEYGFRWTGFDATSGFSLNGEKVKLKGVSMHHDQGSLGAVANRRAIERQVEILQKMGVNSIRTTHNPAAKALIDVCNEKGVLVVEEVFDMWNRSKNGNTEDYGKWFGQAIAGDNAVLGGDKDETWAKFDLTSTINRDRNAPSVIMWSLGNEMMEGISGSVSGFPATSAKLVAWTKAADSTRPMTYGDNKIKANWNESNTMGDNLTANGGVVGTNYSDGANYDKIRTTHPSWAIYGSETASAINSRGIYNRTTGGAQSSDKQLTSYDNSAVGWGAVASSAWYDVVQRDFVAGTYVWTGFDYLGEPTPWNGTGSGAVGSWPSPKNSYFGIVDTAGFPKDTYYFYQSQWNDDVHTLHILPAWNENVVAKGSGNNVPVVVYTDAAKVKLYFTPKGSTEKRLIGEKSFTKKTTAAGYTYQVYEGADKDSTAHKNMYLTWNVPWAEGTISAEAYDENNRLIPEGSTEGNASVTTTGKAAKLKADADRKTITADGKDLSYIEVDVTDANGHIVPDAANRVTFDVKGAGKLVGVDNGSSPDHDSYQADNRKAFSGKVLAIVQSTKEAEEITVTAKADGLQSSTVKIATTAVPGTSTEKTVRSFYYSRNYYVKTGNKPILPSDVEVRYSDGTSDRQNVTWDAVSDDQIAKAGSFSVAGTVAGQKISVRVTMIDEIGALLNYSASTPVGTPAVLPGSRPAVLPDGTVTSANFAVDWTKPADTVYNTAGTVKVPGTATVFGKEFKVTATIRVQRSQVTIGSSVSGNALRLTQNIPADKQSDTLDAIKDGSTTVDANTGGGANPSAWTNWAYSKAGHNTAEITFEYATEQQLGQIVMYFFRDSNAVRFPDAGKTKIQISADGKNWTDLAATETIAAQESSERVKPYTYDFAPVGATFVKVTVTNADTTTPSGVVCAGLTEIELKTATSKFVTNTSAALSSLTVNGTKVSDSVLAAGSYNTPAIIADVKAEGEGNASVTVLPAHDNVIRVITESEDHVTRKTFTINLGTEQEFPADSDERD
# Source text: as §2
# [9] = tested on: Bifidobacterium bifidum lactase of SEQ ID NO: 1, variant G856E; assay: biochemical; settings: pH 6.5; E856 relative to G856
# Source text: as §2
# [10] = tested on: Bifidobacterium bifidum lactase of SEQ ID NO: 1, variant G856E; assay: Km at pH 6.5, backbone with Glu at position 856 (purified samples); type: biochemical; settings: E856 relative to G856
# Source text: as §2
# Sequence of Bifidobacterium bifidum lactase, parent, SEQ ID NO: 1 (A4K5H9 entry or part of it): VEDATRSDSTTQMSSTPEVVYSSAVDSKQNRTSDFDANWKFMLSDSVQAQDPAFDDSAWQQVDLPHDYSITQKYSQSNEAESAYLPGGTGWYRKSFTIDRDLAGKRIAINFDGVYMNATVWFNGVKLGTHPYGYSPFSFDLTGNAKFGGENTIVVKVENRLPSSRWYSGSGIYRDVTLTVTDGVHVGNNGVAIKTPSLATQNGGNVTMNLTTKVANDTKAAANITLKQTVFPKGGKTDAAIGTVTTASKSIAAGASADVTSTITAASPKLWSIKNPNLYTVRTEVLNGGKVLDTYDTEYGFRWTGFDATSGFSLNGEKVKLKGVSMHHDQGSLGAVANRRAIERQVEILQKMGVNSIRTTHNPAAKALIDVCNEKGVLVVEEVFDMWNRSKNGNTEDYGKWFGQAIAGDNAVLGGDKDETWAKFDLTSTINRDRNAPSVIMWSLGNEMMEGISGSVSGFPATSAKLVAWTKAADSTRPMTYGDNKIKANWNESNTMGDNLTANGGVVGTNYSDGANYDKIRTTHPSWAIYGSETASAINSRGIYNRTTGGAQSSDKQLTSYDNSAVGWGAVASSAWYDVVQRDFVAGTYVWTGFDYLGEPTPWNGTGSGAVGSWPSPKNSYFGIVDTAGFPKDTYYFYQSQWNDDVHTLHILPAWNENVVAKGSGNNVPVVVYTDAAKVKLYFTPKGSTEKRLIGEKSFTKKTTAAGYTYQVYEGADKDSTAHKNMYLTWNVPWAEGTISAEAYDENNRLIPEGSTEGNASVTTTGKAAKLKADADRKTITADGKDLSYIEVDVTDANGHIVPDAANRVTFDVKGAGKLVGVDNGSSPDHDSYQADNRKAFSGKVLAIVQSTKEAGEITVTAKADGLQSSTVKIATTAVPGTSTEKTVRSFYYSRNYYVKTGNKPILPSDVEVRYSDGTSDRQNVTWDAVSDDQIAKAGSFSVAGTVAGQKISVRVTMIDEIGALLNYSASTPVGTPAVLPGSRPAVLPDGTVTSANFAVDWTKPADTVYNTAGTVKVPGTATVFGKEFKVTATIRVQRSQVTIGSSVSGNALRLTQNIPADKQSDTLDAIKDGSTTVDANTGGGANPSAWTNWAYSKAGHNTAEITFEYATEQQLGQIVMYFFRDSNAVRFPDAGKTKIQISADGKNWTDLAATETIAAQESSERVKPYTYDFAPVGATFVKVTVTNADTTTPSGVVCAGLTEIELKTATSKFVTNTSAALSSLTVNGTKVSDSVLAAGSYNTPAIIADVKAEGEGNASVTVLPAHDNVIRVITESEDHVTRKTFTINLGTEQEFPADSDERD
# T1 sequence (A4K5H9 entry or part of it): as above
# Sequence of Bifidobacterium bifidum lactase (SEQ ID NO: 1) variant E2G (A4K5H9 entry or part of it E34G): as the sequence (A4K5H9 entry or part of it) above, with E2G counted along it
# Sequence of Bifidobacterium bifidum lactase (SEQ ID NO: 1) variant V1D (A4K5H9 entry or part of it V33D): as the sequence (A4K5H9 entry or part of it) above, with V1D counted along it
# Sequence of Bifidobacterium bifidum lactase (SEQ ID NO: 1) variant V1R (A4K5H9 entry or part of it V33R): as the sequence (A4K5H9 entry or part of it) above, with V1R counted along it
# Sequence of Bifidobacterium bifidum lactase (SEQ ID NO: 1) variant V1F (A4K5H9 entry or part of it V33F): as the sequence (A4K5H9 entry or part of it) above, with V1F counted along it
# Sequence of Bifidobacterium bifidum lactase (SEQ ID NO: 1) variant V1K (A4K5H9 entry or part of it V33K): as the sequence (A4K5H9 entry or part of it) above, with V1K counted along it
smiles,measurement,setting,value
OC[C@H]1OC(O)[C@H](O)[C@@H](O)[C@H]1O (stereo partly drawn) [D-(+)-Galactose],galactose inhibition improvement factor (GI-IF),[1],1.0
same,GI-IF (galactose inhibition assay improvement factor),[2],1.25
same,GI-IF (galactose inhibition assay improvement factor),[3],1.23
same,GI-IF (galactose inhibition assay improvement factor),[4],1.11
same,GI-IF (galactose inhibition assay improvement factor),[5],1.12
same,GI-IF (galactose inhibition assay improvement factor),[6],1.17
"OC[C@H]1OC(O)[C@H](O)[C@@H](O)[C@H]1O (stereo partly drawn) [galactose, D-(+)-Galactose]",Ki,[7],41.5 mM
same,Ki,[8],40.6 mM
same,"IF (Ki galactose inhibition, E856 vs. G856)",[9],0.98
OC[C@H]1O[C@@H](O[C@H]2[C@H](O)[C@@H](O)C(O)O[C@@H]2CO)[C@H](O)[C@@H](O)[C@H]1O (stereo partly shown) [lactose],"IF (Km, E856 vs. G856)",[10],0.98
